Assay results taken from patent US20250115648A1 (priority 2013, published 2025).
Several values for one entry are separate records, joined by “and”; a condition that tells them apart may be missing. Equal values may be shown once.

Key:
CD-1 mice = experiment: Activity level of CD-1 mice after injection of free peptides; details: high dose (200 nmol), IV, starting 3 minutes post injection
[1] = mouse, in vivo
U87 flank xenografts = system: U87 flank xenografts; design: species or system mice; details: mouse, in vivo
[2] = cited from earlier work; for Peak Abs.: peak absorbance wavelength of exemplary fluorescent reporter molecule; for Peak Em.: peak emission wavelength of exemplary fluorescent reporter molecule

| Compound | Peak Abs. [2] | Peak Em. [2] | also measured |
| --- | --- | --- | --- |
| Chlorotoxin [KNT-01] |  |  | Activity level after free peptide injection (CD-1 mice): decrease in activity level, somnolence, and prostration |
| CC1(C)C(/C=C/C=C/C=C/C=C2\N(CCCCS(=O)(=O)[O-])c3ccc4ccccc4c3C2(C)C)=[N+](CCCCS(=O)(=O)[O-])c2ccc3ccccc3c21.[Na+] [ICG free dye, Cardiogreen (ICG)] |  |  | Detection in fecal matter [1]: detectable in the fecal matter; Detection in liver, kidney, spleen, or brain [1]: not detectable; Targeting / detection in tumor tissue (U87 flank xenografts): not detected |
| CN(C)CCNC(=O)CCc1ccc2n1[B-](F)(F)[N+]1=C(c3ccc[nH]3)C=CC1=C2 [LysoTracker Red] | 573 nanometers | 592 nanometers |  |
| carboxy-X-rhodamine [ROX (6-ROX)] | 568 nanometers | 595 nanometers |  |
| Nc1ccc2cc3ccc(N)cc3[n+](CCCC(=O)O)c2c1.[O-][Cl+3]([O-])([O-])[O-] [ATTO 465] | 453 nanometers | 507 nanometers |  |
| CC(=O)Oc1cc2c(cc1Cl)C(c1ccccc1C(=O)O)c1cc(Cl)c(OC(C)=O)cc1O2 [H2DCFDA (H2-DCF, DCFR)] | 504 nanometers | 540 nanometers |  |
| O=C(O)c1cc2cc(F)c(O)c(F)c2oc1=O [Pacific Blue] | 405 nanometers and 410 nanometers | 455 nanometers |  |
| CCN1c2cc3c(cc2C(C)=CC1(C)C)N=c1cc2c(cc1O3)=[N+](CCCC(=O)O)C(C)(C)C=C2CS(=O)(=O)O [ATTO 700] | 699 nanometers | 719 nanometers |  |
| O=C(O)CSc1c(F)c(F)c(C(=O)O)c(-c2c3cc(F)c(=O)cc-3oc3cc(O)c(F)cc23)c1F [Oregon Green 514] | 512 nanometers | 532 nanometers |  |
| O=C(COc1ccc(C2=[N+]3C(=Cc4ccc(-c5cccs5)n4[B-]3(F)F)C=C2)cc1)NCCCCCC(=O)ON1C(=O)CCC1=O [Bodipy TR-X] | 588 nanometers | 621 nanometers |  |
| O=S(=O)([O-])c1cc(O)c2ccc3c(S(=O)(=O)[O-])cc(S(=O)(=O)[O-])c4ccc1c2c34.[Na+].[Na+].[Na+] [HPTS (Solvent Green 7)] | 455 nanometers | 510 nanometers |  |
| CN1/C(=C/c2cc[n+](CCC[N+](C)(C)CCC[N+](C)(C)CCC[n+]3ccc(/C=C4/Oc5ccccc5N4C)cc3)cc2)Oc2ccccc21.[I-].[I-].[I-].[I-] [POPO-1] | 434 nanometers | 456 nanometers |  |
| CC1=CC(C)(C)N(C)c2cc3[o+]c4cc5c(cc4c(-c4cc(NC(=O)c6ccc(CCl)cc6)ccc4C(=O)[O-])c3cc21)C(C)=CC(C)(C)N5C.CC1=CC(C)(C)N(C)c2cc3[o+]c4cc5c(cc4c(-c4ccc(NC(=O)c6ccc(CCl)cc6)cc4C(=O)[O-])c3cc21)C(C)=CC(C)(C)N5C [CellTracker Red CMTPX] | 584 nanometers | 613 nanometers |  |
| O=C(COc1ccc(/C=C/c2ccc3n2[B-](F)(F)[N+]2=C(c4cccs4)C=CC2=C3)cc1)NCCCCCC(=O)ON1C(=O)CCC1=O [Bodipy 630/650-X] |  | 641 nanometers |  |
| C[N+]1=C(/C=C/C=C/C=C2\N(Cc3ccc(CCl)cc3)c3ccccc3C2(C)C)C(C)(C)c2ccccc21.[Cl-] [MitoTracker Deep Red FM] | 641 nanometers | 661 nanometers |  |
| CCN(CC)c1ccc2c(-c3ccc(S(=O)(=O)NCCCCCC(=O)O)cc3S(=O)(=O)[O-])c3ccc(=[N+](CC)CC)cc-3oc2c1 [rhodamine Red-X] | 572 nanometers | 591 nanometers |  |
| Fast Blue | 360 nanometers | 440 nanometers |  |
| CN1/C(=C/C=C/c2cc[n+](CCC[N+](C)(C)CCC[N+](C)(C)CCC[n+]3ccc(/C=C/C=C4/Oc5ccccc5N4C)cc3)cc2)Oc2ccccc21.[I-].[I-].[I-].[I-] [POPO-3] | 532 nanometers | 573 nanometers |  |
| CC[N+]1=c2cc3c(cc2C(CS(=O)(=O)O)=CC1(C)C)=Cc1cc2c(cc1C3(C)C)N(CCCC(=O)O)C(C)(C)CC2C.[O-][Cl+3]([O-])([O-])[O-] (stereo not drawn) [ATTO 647] | 644 nanometers | 670 nanometers |  |
| Texas Red | 592 nanometers | 615 nanometers |  |
| Cc1cc(=O)oc2c(F)c(O)c(F)cc12 [DiFMU (pH 9.0)] | 357 nanometers | 450 nanometers |  |
| CCCN(CCCN(C)C)c1cc(/C=C2/Sc3ccccc3N2C)c2ccccc2[n+]1-c1ccccc1 [SYBR Green I] | 497 nanometers | 521 nanometers |  |
| O=C([O-])CN(CC(=O)[O-])c1ccccc1OCCOc1cc(NC(=O)c2ccc3c(c2)C(=O)OC32c3cc(Cl)c([O-])cc3Oc3cc([O-])c(Cl)cc32)ccc1N(CC(=O)[O-])CC(=O)[O-].[K+].[K+].[K+].[K+].[K+].[K+] [Calcium Green-1] | 506 nanometers | 540 nanometers |  |
